From patent EP1764363A2, “Substituted acetophenonederivatives” (Riemser Arzneimittel AG, priority 2005, dated 2007)
Converted amounts (≈) assume the structure as drawn.

Tests used:
Micrococcus luteus = test: Minimal inhibitory concentration (MHK), microtitre plate, TTC staining; type: cell-based; conditions: 48h, 36°C
S. epidermides = test: as above; type: cell-based; conditions: 48h, 36°C
MDA-MB435 = test: Chemosensitivity test (modified MTT test EZ4U); conditions: Homo sapiens, MDA-MB-435, 96 h, read-out: IC50-Werte
Text: (§1) Die Verbindungen wurden in Dimethylsulfoxid (DMSO) als konzentrierte Stammlösungen (100-400fach) gelöst und für Proliferationstests in Zellkulturmedium verdünnt.
(§2) Mit Ausnahme von SIM, KAL Ewingsarkom (in Wien etabliert) und LAN Neuroblastom (University of Los Angeles) wurden die Zell-Linien von der American Type Culture Collection (ATCC, Rockville, MD) bezogen und zum Erhalt von konfluenten Monolayerkulturen in RPMI-1640 Bikarbonatmedium (Seromed, Berlin, Deutschland) in einem Zellkulturschrank (5% CO2, 37°C) kultiviert. Mit der Ausnahme der murinen NlH3T3 Fibroblasten sind alle verwendeten Zell-Linien humanen Ursprungs. Die Zellen wurden auf Verunreinigung durch Mycoplasmen untersucht. Das Medium wurde mit 10% hitzeinaktiviertem foetalem Kälberserum (Seromed) and 4 mM Glutamin ergänzt. Die Zellen wurden durch Trypsinierung subkultiviert (0.03% Trypsin enthaltend 0.02% EDTA, dreimal pro Woche). Die Trypsinierung wurde durch Verwendung vom komplettem Zellkulturmedium gestoppt. Die Zellzahl wurde unter Verwendung eines TOA Sysmex Microzellzählers (TOA, Tokyo, Japan) bestimmt.
(§3) 10^4 Zellen/well wurden in Mikrotiterplatten mit 96 Vertiefungen (100 µl Medium) verteilt und die zu testenden Verbindungen wurden in einem weiteren Volumen von 100 µl hinzugegeben. […]

Colo205 = test: Chemosensitivity test (modified MTT test EZ4U); conditions: Homo sapiens, COLO 205, 96 h, read-out: IC50-Werte
Description: as §1
(§4) Die Zellen wurden auf Verunreinigung durch Mycoplasmen untersucht. Das Medium wurde mit 10% hitzeinaktiviertem foetalem Kälberserum (Seromed) and 4 mM Glutamin ergänzt. Die Zellen wurden durch Trypsinierung subkultiviert (0.03% Trypsin enthaltend 0.02% EDTA, dreimal pro Woche). Die Trypsinierung wurde durch Verwendung vom komplettem Zellkulturmedium gestoppt. Die Zellzahl wurde unter Verwendung eines TOA Sysmex Microzellzählers (TOA, Tokyo, Japan) bestimmt.
(§5) 10^4 Zellen/well wurden in Mikrotiterplatten mit 96 Vertiefungen (100 µl Medium) verteilt und die zu testenden Verbindungen wurden in einem weiteren Volumen von 100 µl hinzugegeben. Alle Verbindungen wurden entweder in 3 fixen Konzentrationen eingesetzt (für Tabellen 1-3) oder in 10 Stufen verdünnt unter Verwendung von Zweifachverdünnungsschritten zur Bestimmung der IC50-Werte (dreifache Ansätze, in den meisten Fällen vierfache Ansätze). Die Platten wurden, mit der Ausnahme der Tests zur Untersuchung des Zusammenhangs von Applikationsdauer und Zellreaktion, 4 Tage lang unter Zellkulturbedingungen inkubiert und die Zellviabilität wurde unter Verwendung eines modifizierten MTT Tests bestimmt (Formazan-Farbstoffbildung aus Tetrazoliumsalzen wie MTT, XTT, WST-1 und anderen durch das mitochondriale Reduktionsystem Succinattetrazolium Reductase EC 1.3.99.1.; EZ4U nichtradioaktiver Zellproliferations- und Cytotoxizitätstest, Biomedica, Wien, Österreich; Testmanual unter: www.bmgrp.com). Hierbei wurde die mitochondriale Aktivität und dadurch die Zellviabilität/Zellzahl bestimmt. Kurz gesagt wurde das gelieferte Substrat in einer Aktivatorlösung gelöst und 20 µl der Mischung wurden für 2 Stunden pro Vertiefung hinzugegeben (Gesamtvolumen 200 µl). Die optische Dichte wurde bei 450 nm unter Verwendung einer leeren Vertiefung als Referenz in einem Mikroplattenlesegerät (Eurogenetics, Brüssel, Belgien) bestimmt. Für jede Zell-Line wurden Vertiefungen verwendet um das MTT-Signal der Mediumkontrollen ohne Testsubstanzen zu bestimmen. Die Proliferation in den Test-Vertiefungen wurde in Bezug auf diese Kontrollwerte (100%) errechnet. Die Testergebnisse wurden zwischen 0,3 und 1,5 optischer Dichte für langsam bzw. schnellproliferierende Zellen erfasst. Diese Dosis-Wirkungs-Beziehungen wurden verwendet um die IC50 (Konzentration bei der das Wachstum um 50% gehemmt wird) unter Verwendung von PRISM Scientific Software (GraphPad Inc., San Diego, CA) zu berechnen.

[1] = system: Staphylococcus aureus (Stamm ATCC 6538); test: Mouse ear test (in vivo), antiseptic effect; set-up: key to Keimwachstum (grade): +++: totale Verhinderung des Keimwachstums; ++: Keimwachstum deutlich reduziert aber nicht völlig unterdrückt; conditions: mouse ears infected with S. aureus ATCC 6538; germ count vs infected untreated animal after 18 and 24 h
CaCo-2 = test: Chemosensitivity test (modified MTT test EZ4U); conditions: Homo sapiens, Caco-2, 96 h, read-out: IC50-Werte
Description: as §1, §4, §5

HT29 = test: Chemosensitivity test (modified MTT test EZ4U); conditions: Homo sapiens, HT-29, 96 h, read-out: IC50-Werte
Text: as §1, §2, §3

Rhodococcus equi = test: Minimal inhibitory concentration (MHK), microtitre plate, TTC staining; type: cell-based; conditions: 48h, 36°C
S. falcium = test: as above; type: cell-based; conditions: 48h, 36°C
MIAPaCa2 = test: Chemosensitivity test (modified MTT test EZ4U); conditions: Homo sapiens, MIA PaCa-2, 96 h, read-out: IC50-Werte
Description: as §1, §4, §5

SW620 = test: Chemosensitivity test (modified MTT test EZ4U); conditions: Homo sapiens, SW-620, 96 h, read-out: IC50-Werte
Description: as §1, §4, §5

BT20 = test: Chemosensitivity test (modified MTT test EZ4U); conditions: Homo sapiens, BT-20, 96 h, read-out: IC50-Werte
Text: as §1, §2, §3

Bacillus subitilis = test: Minimal inhibitory concentration (MHK), microtitre plate, TTC staining; type: cell-based; conditions: 48h, 36°C
DU 145 = test: Chemosensitivity test (modified MTT test EZ4U); conditions: Homo sapiens, DU-145, 96 h, read-out: IC50-Werte
Text: as §1, §2, §3

Escherichia coli = test: Minimal inhibitory concentration (MHK), microtitre plate, TTC staining; type: cell-based; conditions: 48h, 36°C
T47D = test: Chemosensitivity test (modified MTT test EZ4U); conditions: Homo sapiens, T47D, 96 h, read-out: IC50-Werte
Description: as §1, §4, §5

E. hirae = test: Minimal inhibitory concentration (MHK), microtitre plate, TTC staining; type: cell-based; conditions: 48h, 36°C
Candida albicans = test: as above; type: cell-based; conditions: 48h, 36°C
S. aureus = test: as above; type: cell-based; conditions: 48h, 36°C
Salmonella sp = test: as above; type: cell-based; conditions: 48h, 36°C
Text: Das Inokulum für die Tests wurde durch Verdünnung der Mikroorganismen in wässriger 0,85% NaCI-Lösung hergestellt, die Verdünnung auf die Stufe 0,5 nach McFarland eingestellt und die Konzentration spektrometrisch bei einer Wellenlänge von 580nm überprüft. Die Zellsuspensionen wurden zur Verwendung in den Tests auf 10^4 UFC/ml verdünnt. Die MHK-Tests erfolgten (Vorschrift nach J. N. P. Eloff, Planta Medica, Vol. 64, 1998, p 711-713) in Mikrotiterplatten mit 96 Vertiefungen. Serienverdünnungen der Konzentrationen lagen im Bereich 1,00 - 0,0015 mg/mL. Als Kontrollsubstanzen dienten Chloramphenicol bzw. Nistatin (Merck) in einer Konzentration von 0,062 - 0,005 mg/ml bzw. 0,0125 - 0,001 mg/ml. Das Inokulum (100 µl) wurde in alle Vertiefungen gegeben und die Platten für 48h bei 36°C inkubiert. Die antimikrobielle Aktivität wurde durch Zugabe von 20 µl einer 0,5% igen wässrigen Lösung von TTC (Tetrazoliumchlorid, Merck) pro Vertiefung detektiert. Die minimale Hemmkonzentration (MHK) wird als die niedrigste Konzentration der Verbindung definiert die das sichtbare Wachstum hemmt (durch TTC-Färbung indiziert).

[2] = Radical scavenger screening with DPPH radicals (DPPH test); conditions: Konzentrationen 500 und 1000µg/ml
Text: […] die 6 Verbindungen HMF2, HMF-3, CH-1, L5, Q20 und […]. Die […] durch den DPPH-Test ermittelt, wobei sich die UV/VIS-Absorption des freien stabilen […] (Diphenyl-β-picrylhydrazin) in Abhängigkeit vom Zustand von […]. Die Auswertung erfolgt qualitativ (dünnschichtchromatographisch) und quantitativ (photometrisch) mit Ascorbinsäure […] Molyneux P. (2004) The use of the stabel free radical diphenylpicrylhydrazyl (DPPH) for estimating antioxidant activity. Songklanakarin J Sci Technol. 26(2): 211-219).

CRO2B = test: Chemosensitivity test (modified MTT test EZ4U); conditions: Homo sapiens, 96 h, read-out: IC50-Werte
Description: as §1, §4, §5

WI38 = test: Chemosensitivity test (modified MTT test EZ4U); conditions: Homo sapiens, WI-38, 96 h, read-out: IC50-Werte
Description: as §1, §4, §5

BxPC3 = test: Chemosensitivity test (modified MTT test EZ4U); conditions: Homo sapiens, BXPC-3, 96 h, read-out: IC50-Werte
Text: as §1, §2, §3

SMILES	MHK-Werte (Micrococcus luteus)	MHK-Werte (S. epidermides)	MHK-Werte (Rhodococcus equi)	MHK-Werte (S. falcium)	MHK-Werte (Bacillus subitilis)	MHK-Werte (Escherichia coli)	MHK-Werte (E. hirae)	MHK-Werte (Candida albicans)	MHK-Werte (S. aureus)	MHK-Werte (Salmonella sp)	other results
COc1cc(/C=C/C(=O)c2ccccc2O)ccc1O [Q20, 3-(4-Hydroxy-3-methoxyphenyl)-1-(2-hydroxyphenyl)-propenon]	1,0 mg/ml	0,5 mg/ml	>1,0 mg/ml	0,3 mg/ml	0,5 mg/ml	>1,0 mg/ml	>1,0 mg/ml	0,3 mg/ml	1,0 mg/ml	>1,0 mg/ml	IC50 (MDA-MB435): 24 µg/mL (≈ 88.8 µM); IC50 (Colo205): 27 µg/mL (≈ 99.9 µM); Keimwachstum (grade) [1]: ++; Keimwachstum reduziert auf [1]: 30%; IC50 (CaCo-2): 12 µg/mL (≈ 44.4 µM); IC50 (HT29): 16 µg/mL (≈ 59.2 µM); IC50 (MIAPaCa2): 18 µg/mL (≈ 66.6 µM); IC50 (SW620): 17 µg/mL (≈ 62.9 µM); IC50 (BT20): 33 µg/mL (≈ 122 µM); IC50 (DU 145): 16 µg/mL (≈ 59.2 µM); IC50 (T47D): 25 µg/mL (≈ 92.5 µM); Radikalfänger-Effekt [2]: 98%; IC50 (CRO2B): 12 µg/mL (≈ 44.4 µM); IC50 (WI38): 8.3 µg/mL (≈ 30.7 µM); IC50 (BxPC3): 33 µg/mL (≈ 122 µM)
COc1cc(/C=C/C(=O)c2ccccc2O)ccc1OCC=C(C)C [Q21, 1-(2-Hydroxyphenyl)-3-[3-methoxy-4-(3-methylbut-2-enyloxy)phenyl]propenon]	>1,0 mg/ml	>1,0 mg/ml	>1,0 mg/ml	0,8 mg/ml	>1,0 mg/ml	>1,0 mg/ml	>1,0 mg/ml	0,6 mg/ml	>1,0 mg/ml	0,9 mg/ml	–
